In brackets after ≈: the same amount, converted by molar mass.
Legend:
[1] = Solubility at 37° C. in aqueous and biorelevant media; assay type: physicochemical; details: for solubility at 2 h / solubility at 24 h: 37 °C, thermodynamic from solid; for solubility at 2 h / solubility at 24 h / Solubility (mg/ mL) 2 h / Solubility (mg/ mL) 24 h: target 250 mg/mL (in free form); for pH of supernatant at 24 h / Solubility (mg/ mL) 2 h / Solubility (mg/ mL) 24 h: listed as L-Tartaric acid cocrystal Pattern A, hydrate
Procedure: To prepare the samples of (S)-4-((2-methoxyethyl)(4-(5,6,7,8-tetrahydro-1,8-naphthyridin-2-yl)butyl)amino)-2-(quinazolin-4-ylamino)butanoic acid L-tartaric acid cocrystal Pattern A, 80.6 mg was weighed into a 2 mL glass vial. Next, 0.18 mL of solubility medium was added. The salt amount used is equivalent to 45 mg of the amorphous free form. Obtained suspensions/solutions were stirred at 37° C. at 400 rpm and sampled at 2 h and at 24 h. The samples were centrifuged at 37° C. at 14,000 rpm for 5 min. Supernatants were analyzed by HPLC and pH meter for solubility and pH value, respectively. […]

[2] = Hygroscopicity by dynamic vapor sorption (DVS); assay type: physicochemical
Procedure: Dynamic vapor sorption of Pattern A was studied using a Surface Measurement Systems (SMS) Intrinsic instrument. Total gas flow was 200 sccm. The oven temperature was 25° C. Water was used as the solvent, in a cycle of 40-95-0-95-40% RH. The stage step was 10% RH and equilibrium was within 0.002 dm/dt (%/min) (minimum dm/dt stability duration: 60 min; maximum dm/dt stage time: 360 min). The sample mass was about 5-50 mg.
The water sorption and desorption behavior of (S)-4-((2-methoxyethyl)(4-(5,6,7,8-tetrahydro-1,8-naphthyridin-2-yl)butyl)amino)-2-(quinazolin-4-ylamino)butanoic acid L-tartaric acid cocrystal Pattern A was investigated by DVS at 25° C. with a cycle of 40-95-0-95-40% RH. XRPD was measured after the DVS test to determine form change. […] It dehydrated in 10% RH and below.

[3] = FaSSGF (fasted state simulated gastric fluid), pH 1.6, fassgf or other biorelevant, FaSSGF, pH 1.6, 37° C.
[4] = FeSSIF-v1 (fed state simulated intestinal fluid), pH 5, fessif, FeSSIF-v1, pH 5.0, 37° C.
[5] = pH 1.2 HCl buffer, pH 1.2, simulated gastric fluid
[6] = pH 4.5 acetate buffer (50 mM), pH 4.5, aqueous buffer
[7] = pH 6.8 phosphate buffer (50 mM), 37° C.
[8] = 10% relative humidity at 25° C.
[9] = 20% relative humidity at 25° C.
[10] = 30% relative humidity at 25° C.
[11] = 40% relative humidity at 25° C.
[12] = 50% relative humidity at 25° C.
[13] = 60% relative humidity at 25° C.
[14] = 70% relative humidity at 25° C.
[15] = 80% relative humidity at 25° C.
[16] = 90% relative humidity at 25° C.
[17] = 95% relative humidity at 25° C.

COCCN(CCCCc1ccc2c(n1)NCCC2)CC[C@H](Nc1ncnc2ccccc12)C(=O)O [Pattern A, (S)-4-((2-methoxyethyl)(4-(5,6,7,8-tetrahydro-1,8-naphthyridin-2-yl)butyl)amino)-2-(quinazolin-4-ylamino)butanoic acid]
solubility at 2 h [1, 3]: 206 mg/mL (≈ 419 mM)
solubility at 24 h [1, 3]: 224 mg/mL (≈ 455 mM)
pH of supernatant at 24 h ([1]; FaSSGF, pH 1.6, 37° C.): (1.6)
Solubility (mg/ mL) 2 h ([1]; FaSSIF-v1, pH 6.5, 37° C.): 84.1 mg/mL (≈ 171 mM)
Solubility (mg/ mL) 24 h ([1]; FaSSIF-v1, pH 6.5, 37° C.): 63.2 mg/mL (≈ 128 mM)
pH of supernatant at 24 h ([1]; FaSSIF-v1, pH 6.5, 37° C.): (6.6)
solubility at 2 h [1, 4]: 203 mg/mL (≈ 413 mM)
solubility at 24 h [1, 4]: 217 mg/mL (≈ 440 mM)
pH of supernatant at 24 h ([1]; FeSSIF-v1, pH 5.0, 37° C.): (5.0)
pH of supernatant at 24 h ([1]; Water, 37° C.): (3.2)
pH of supernatant at 24 h ([1]; pH 1.2 HCl buffer, 37° C.): (1.4)
solubility at 2 h [1, 5]: 215 mg/mL (≈ 436 mM)
solubility at 24 h [1, 5]: 222 mg/mL (≈ 451 mM)
pH of supernatant at 24 h ([1]; pH 4.5 acetate buffer (50 mM), 37° C.): (4.4)
solubility at 2 h [1, 6]: 214 mg/mL (≈ 435 mM)
solubility at 24 h [1, 6]: 220 mg/mL (≈ 448 mM)
Solubility (mg/ mL) 2 h [1, 7]: 28.4 mg/mL (≈ 57.7 mM)
Solubility (mg/ mL) 24 h [1, 7]: 56.4 mg/mL (≈ 114 mM)
pH of supernatant at 24 h [1, 7]: (6.8)
solubility at 2 h ([1]; water): 207 mg/mL (≈ 421 mM)
solubility at 24 h ([1]; water): 218 mg/mL (≈ 442 mM)
1st desorp. Weight % change ([2]; 0% relative humidity at 25° C.): 0.0%
2nd sorp. Weight % change ([2]; 0% relative humidity at 25° C.): 0.0%
1st desorp. Weight % change [2, 8]: 5.2%
2nd sorp. Weight % change [2, 8]: 4.7%
1st desorp. Weight % change [2, 9]: 7.4%
2nd sorp. Weight % change [2, 9]: 7.1%
1st desorp. Weight % change [2, 10]: 8.3%
2nd sorp. Weight % change [2, 10]: 8.0%
1st desorp. Weight % change [2, 11]: 8.9%
1st sorp. Weight % change [2, 11]: 8.5%
2nd desorp. Weight % change [2, 11]: 8.9%
2nd sorp. Weight % change [2, 11]: 8.7%
1st desorp. Weight % change [2, 12]: 9.4%
1st sorp. Weight % change [2, 12]: 9.0%
2nd desorp. Weight % change [2, 12]: 9.4%
2nd sorp. Weight % change [2, 12]: 9.2%
1st desorp. Weight % change [2, 13]: 9.8%
1st sorp. Weight % change [2, 13]: 9.6%
2nd desorp. Weight % change [2, 13]: 9.9%
2nd sorp. Weight % change [2, 13]: 9.7%
1st desorp. Weight % change [2, 14]: 10.4%
1st sorp. Weight % change [2, 14]: 10.1%
2nd desorp. Weight % change [2, 14]: 10.4%
2nd sorp. Weight % change [2, 14]: 10.2%
1st desorp. Weight % change [2, 15]: 11.1%
1st sorp. Weight % change [2, 15]: 10.7%
2nd desorp. Weight % change [2, 15]: 11.1%
2nd sorp. Weight % change [2, 15]: 10.9%
1st desorp. Weight % change [2, 16]: 12.6%
1st sorp. Weight % change [2, 16]: 12.2%
2nd desorp. Weight % change [2, 16]: 12.6%
2nd sorp. Weight % change [2, 16]: 12.1%
1st desorp. Weight % change [2, 17]: 18.7%
1st sorp. Weight % change [2, 17]: 18.7%
2nd desorp. Weight % change [2, 17]: 16.1%
2nd sorp. Weight % change [2, 17]: 16.1%
XRPD following the DVS experiments ([2]; after cycle 40-95-0-95-40% RH, 25° C.): no form change
hygroscopicity ([2]; at 70% RH and below, 25° C.): slightly hygroscopic
water uptake ([2]; from 40% RH to 70% RH, 25° C.): about 1.6%
water uptake ([2]; from 80% RH to 95% RH, 25° C.): about 8.0%
behaviour at low humidity ([2]; in 10% RH and below, 25° C.): dehydrated
hygroscopicity ([2]; in 80% RH and above, 25° C.): moderately hygroscopic
water loss on dehydration ([2]; relative humidity below 10% RH, water absorbed back at 10% RH and above): about 5%
